Data: patent US8680065B2, “Oligonucleotides of human endogenous retrovirus 9 (ERV-9) long terminal repeat (LTR) and methods of use” (The United States of America, as represented by the …, priority 2008, dated 2014)

What was measured:
[1] = test system: HT1080 cells; assay: Cancer cell proliferation, U3 and U5 oligonucleotides, 72 hours; format: cell-based, human; settings: 20 μg/ml
Description: FIG. 16 is a graph showing the effect of sense and antisense ERV-9 U3 (SEQ ID NOs: 1, 2, 7, 8, 9, and 10) and U5 (SEQ ID NOs: 11 and 12) oligonucleotides on proliferation of HT1080 cells. Cells (4×10^4) were treated with oligonucleotide formulated in LIPOFECTAMINE™ at a concentration of 20 μg/ml for 72 hours. GFP sense oligonucleotide was used as a control to measure the non-specific cytotoxicity of phosphorothioate-based oligonucleotides. Antisense oligonucleotides G3139, GRN163, and MDM2 were also evaluated. Cell proliferation levels were expressed relative to cells transfected with GFP oligonucleotide. All U3 and U5 sense and antisense oligonucleotides inhibited cell proliferation to a greater extent that GFP control. In addition, with the exception of the U5 sense oligonucleotide, all U3 and U5 oligonucleotides inhibited cell proliferation better than the G3139, GRN163 and MDM2 antisense oligonucleotides.
HT1080 or MDA-231 cells (4×10^4 cells) were treated with ERV-9 LTR (U3 or U5) sense or antisense oligonucleotides formulated in LIPOFECTAMINE™ at a concentration of 20 μg/ml for 72 hours. GFP sense oligonucleotide was used as a control to measure the non-specific cytotoxicity of phosphorothioates-based oligonucleotides. Relative cell proliferation levels were expressed as percentage of GFP oligonucleotide transfected control. The results are shown in FIG. 16 (HT1080 cells) and FIG. 17 (MDA-231 cells).

[2] = test system: MCF-7 cells; assay: Cancer cell proliferation, oligonucleotide in combination with VP16, 48 hours; format: cell-based, human; settings: oligonucleotide 15 μg/ml with VP16 30 ng/ml and 50 ng/ml, P<0.05
Description: FIG. 12 is a graph showing proliferation of MCF-7 cells treated with ERV-9 U3 sense or antisense oligonucleotide (SEQ ID NOs: 1 and 2, respectively), in combination with VP16. Cells (4×10^4) were treated with oligonucleotide (15 μg/ml) alone or in combination with the concentrations of VP16 shown for 48 hours.
To test the effect of treating cancer cells with the combination of ERV-9 U3 oligonucleotide and VP16, six different cancer cell lines were analyzed: HT1080, (FIG. 7); MDA-231 (FIG. 8); K562 (FIG. 9); LNcaP (FIG. 10); HepG2 (FIG. 11); and MCF-7 (FIG. 12). Cells (4×10^4) were treated with 15 μg/ml ERV-9 U3 sense (SEQ ID NO: 1) or antisense (SEQ ID NO: 2) oligonucleotide alone or in combination with VP16 at a concentration of 30 ng/ml or 50 ng/ml. After 48 hours, cell proliferation was assessed by direct cell counting. Cell proliferation levels were expressed relative to GFP oligonucleotide control in the absence of VP16.

[3] = test system: human primary cells (keratinocytes, lymphocytes, monocytes); assay: Proliferation of normal human primary cells, Example 3, summary; format: cell-based; settings: 20 μg/ml, 48 hours
Description: (§1) To determine whether the inhibitory effect of ERV-9 U3 oligonucleotides is specific to cancer cells, human primary keratinocytes (FIG. 13), lymphocytes (FIG. 14), or monocytes (FIG. 15) were treated with ERV-9 U3 sense or antisense oligonucleotide and cell proliferation was evaluated. Cells (4×10^4) were transfected with ERV-9 U3 sense or antisense oligonucleotide (SEQ ID NOs: 1 and 2, respectively) formulated in LIPOFECTAMINE™ at a concentration of 20 μg/ml. GFP oligonucleotide was used as non-specific phosphorothioate oligonucleotide control. After 48 hours, cell proliferation was assessed by direct cell counting. Cell proliferation levels were expressed relative to GFP control.

[4] = test system: HT1080, MDA-231, K562, LNcaP, HepG2 and MCF-7 cancer cell lines; assay: Cancer cell proliferation, Example 1, summary over six cancer cell lines; format: cell-based, human; settings: for proliferation relative to GFP control oligonucleotide: each of six cancer cell lines, 10, 20 or 30 μg/ml, 48 hours; for proliferation compared with Bcl-2, telomerase and MDM2-specific antisense oligonucleotides: six cancer cell lines, in most instances
Description: To test the effect of the sense and antisense ERV-9 U3 oligonucleotides on proliferation of cancer cells, six different cancer cell lines were selected for transfection studies: HT1080, fibrosarcoma cells (FIG. 1); MDA-231, breast cancer cells (FIG. 2); K562, myelogenous leukemia cells (FIG. 3); LNcaP, prostate cancer cells (FIG. 4); HepG2, hepatocellular carcinoma cells (FIG. 5); and MCF-7, breast cancer cells (FIG. 6). Cells (4×10^4) were treated with ERV-9 U3 sense or antisense oligonucleotide formulated in LIPOFECTAMINE™ at an oligonucleotide concentration of 10, 20 or 30 μg/ml for 48 hours. Green fluorescent protein (GFP) sense oligonucleotide ([…]; SEQ ID NO: 3) was used as a control to measure the non-specific cytotoxicity of phosphorothioate-based oligonucleotides. Antisense oligonucleotides specific for Bcl-2 (G3139; TCTCCCAGCGTGCGCCAT; SEQ ID NO: 4), telomerase (GRN163; TAGGGTTAGACAA; SEQ ID NO: 5), and MDM2 ([…]; SEQ ID NO: 6) were also evaluated. […] After 48 hours of oligonucleotide treatment, cell proliferation was assessed by direct cell counting. Cell proliferation levels were expressed relative to cells transfected with 10 μg/ml GFP control oligonucleotide.

[5] = test system: human primary monocytes; assay: Proliferation of normal human primary cells, 48 hours; format: cell-based; settings: 20 μg/ml, P>0.05
Description: (§2) FIG. 15 is a graph showing the effect of ERV-9 U3 sense and antisense oligonucleotides (SEQ ID NOs: 1 and 2, respectively) on human primary monocytes. Cells (4×10^4) were transfected with ERV-9 U3 sense or antisense oligonucleotide formulated in LIPOFECTAMINE™ at a concentration of 20 μg/ml for 48 hours.
as §1

[6] = test system: HepG2 cells (a hepatocellular carcinoma cell line); assay: Cancer cell proliferation, oligonucleotide in LIPOFECTAMINE, 48 hours, direct cell counting; format: cell-based, human; settings: oligonucleotide 10, 20 or 30 μg/ml, P<0.05
Description: FIG. 5 is a graph showing the effect of sense and antisense ERV-9 U3 oligonucleotides (SEQ ID NOs: 1 and 2, respectively) on proliferation of HepG2 cells (a hepatocellular carcinoma cell line). Cells (4×10^4) were treated with ERV-9 U3 sense or antisense oligonucleotide formulated in LIPOFECTAMINE™ at the concentrations shown for 48 hours.
To test the effect of the sense and antisense ERV-9 U3 oligonucleotides on proliferation of cancer cells, six different cancer cell lines were selected for transfection studies: HT1080, fibrosarcoma cells (FIG. 1); MDA-231, breast cancer cells (FIG. 2); K562, myelogenous leukemia cells (FIG. 3); LNcaP, prostate cancer cells (FIG. 4); HepG2, hepatocellular carcinoma cells (FIG. 5); and MCF-7, breast cancer cells (FIG. 6). Cells (4×10^4) were treated with ERV-9 U3 sense or antisense oligonucleotide formulated in LIPOFECTAMINE™ at an oligonucleotide concentration of 10, 20 or 30 μg/ml for 48 hours. […] Antisense oligonucleotides specific for Bcl-2 (G3139; TCTCCCAGCGTGCGCCAT; SEQ ID NO: 4), telomerase (GRN163; TAGGGTTAGACAA; SEQ ID NO: 5), and MDM2 ([…]; SEQ ID NO: 6) were also evaluated. […] After 48 hours of oligonucleotide treatment, cell proliferation was assessed by direct cell counting. […]

[7] = test system: human primary keratinocytes; assay: Proliferation of normal human primary cells, 48 hours; format: cell-based; settings: 20 μg/ml, P>0.05
Description: as §2, with “13” for “15”, “keratinocytes.” for “monocytes.”, “hours. GFP oligonucleotide was used as non-specific phosphorothioate oligonucleotide control.” for “hours.”
as §1

Substance | cell proliferation relative to GFP oligonucleotide transfected control [1] | cell proliferation relative to GFP oligonucleotide control [2] | cell proliferation of human primary cells relative to control GFP oligonucleotide [3] | cell proliferation of human primary cells relative to control GFP oligonucleotide ([3]; listed as ERV-9 U3 antisense oligonucleotide) | proliferation relative to GFP control oligonucleotide [4] | proliferation compared with Bcl-2, telomerase and MDM2-specific antisense oligonucleotides [4] | tumor cell proliferation, antisense relative to sense oligonucleotide ([4]; tumor cells) | cell proliferation relative to control GFP oligonucleotide [5] | cell proliferation relative to GFP oligonucleotide [6] | cell proliferation relative to control GFP oligonucleotide [7] | cell proliferation of human primary cells relative to control GFP oligonucleotide ([3]; listed as ERV-9 U3 sense oligonucleotide)
U3AS: ERV-9 LTR U3 antisense oligonucleotide CTGATTGGTGTGTTTACAAACCTTGAG, phosphorothioate internucleoside linkages at each position (all phosphorothioate, sugars by position and methylation of C not given here) [Oligo U3AS] | inhibited cell proliferation better than G3139, GRN163 and MDM2 oligonucleotides | inhibited cell proliferation better than GFP control and G3139, GRN163 and MDM2 antisense oligonucleotides | neither U3 sense nor antisense oligonucleotides had an effect on the proliferation of human primary cells | did not significantly alter cell proliferation of human primary cells, relative to control GFP oligonucleotide | resulted in a significant decrease in proliferation of each cancer cell line tested, relative to GFP control oligonucleotide | inhibited proliferation to a greater extent than the Bcl-2, telomerase and MDM2-specific antisense oligonucleotides | more potently inhibited tumor cell proliferation (relative to the sense oligonucleotide) | did not inhibit cell proliferation relative to control GFP oligonucleotide | inhibited cell proliferation better than GFP control and G3139, GRN163 and MDM2 antisense oligonucleotides at all three concentration levels | did not inhibit cell proliferation relative to control GFP oligonucleotide | 
U3S: ERV-9 LTR U3 sense oligonucleotide CTCAAGGTTTGTAAACACACCAATCAG, phosphorothioate internucleoside linkages at each position (all phosphorothioate, sugars by position and methylation of C not given here) [Oligo U3S] | inhibited cell proliferation better than G3139, GRN163 and MDM2 oligonucleotides | inhibited cell proliferation better than GFP control and G3139, GRN163 and MDM2 antisense oligonucleotides | neither U3 sense nor antisense oligonucleotides had an effect on the proliferation of human primary cells |  | resulted in a significant decrease in proliferation of each cancer cell line tested, relative to GFP control oligonucleotide | inhibited proliferation to a greater extent than the Bcl-2, telomerase and MDM2-specific antisense oligonucleotides |  | did not inhibit cell proliferation relative to control GFP oligonucleotide | inhibited cell proliferation better than GFP control and G3139, GRN163 and MDM2 antisense oligonucleotides at all three concentration levels | did not inhibit cell proliferation relative to control GFP oligonucleotide | did not significantly alter cell proliferation of human primary cells, relative to control GFP oligonucleotide
